Where two headings read alike, the source gives them in different places.
Experiments:
human [1] = settings: cited from earlier work
human [2] = test system: human
[3] = previous range about 170-174 pounds held for ten years

In the case of `OCCOCCN1CCN(C2=Nc3ccccc3Sc3ccccc32)CC1` [quetiapine], the “dosage ultimately required after development of tolerance” value (human [1]; quetiapine, Mariani et al. report) is listed as 800 mg, the “time after ingestion before the drug enters the system” value (human [1]; quetiapine, background) is listed as “about an hour or more” and the “side effect at recommended amounts” value (human [1]; quetiapine, Wikipedia, Seroquel prescribing information) is listed as “somnolence (drowsiness)”. For the same compound, the “drowsiness after getting up” value (human [2]; quetiapine (Seroquel) alone, 75 mg reduced gradually to 50 mg) was “leaving them drowsy, especially in the mornings”, the “drowsiness after getting up” value (human [2]; quetiapine alone, 25 mg) was “did not leave them drowsy after getting up” and the “time the drug had to be taken before going to bed” value (human [2]; quetiapine alone, 25 mg) was “an hour to an hour and a half”. For the same compound, the “grogginess after additional dose taken during the night” value (human [2]; quetiapine alone, 25 mg plus additional quetiapine) was “left them a bit groggy during the early part of the day” and the body weight [3] was 184 pounds.
For `Cc1ccc(-c2nc3ccc(C)cn3c2CC(=O)N(C)C)cc1` [zolpidem], the duration of effectiveness (human [1]; zolpidem alone, background) is listed as “about four”, the “time of use after which tolerance can develop” value (human [1]; zolpidem alone, background) is listed as “just a few weeks” and the “period of use after which the drug becomes addictive” value (human [1]; zolpidem alone, Kirkwood, Mariani et al.) is listed as “about two months or longer”. For the same compound, the “effectiveness in maintaining sleep” value (human [1]; zolpidem, Wikipedia, Rosenberg 2006) was “has not adequately demonstrated effectiveness in maintaining sleep”, the “ability to sleep without the drug (dependence)” value (human [2]; after extended use of zolpidem alone) was “unable to sleep without zolpidem” and the “time asleep before getting up to empty their bladder” value (human [2]; inventor, nightly use) was “four or even three”. For the same compound, the “time kept asleep per dose” value (human [2]; zolpidem (Ambien) alone) was “about four”.

Source: patent US8741888B2, “Sleep aid composition and method” (priority 2010, dated 2014)
